Reference: patent US20070167511A1, “Medicinal composition for prevention or treatment of overactive bladder accompanying nervous disorder” (KISSEI PHARMACEUTICAL CO,. LTD., priority 2004, published 2007)

System: rat spinal cord injured OAB model
Experiment: Urodynamic study (cystometry) in rat spinal cord injured OAB model
Assay type: in vivo
Conditions: conscious female rats with spinal cord transection at Th10, intravenous injection 0.1 mg/kg
Protocol: Efficacy on Urodynamic Study in Rat Spinal Cord Injured OAB Model
In ether anesthetized female rats, spinal cord transection was performed at the level of Th10. About 1 month after the spinal cord transection, each rat was anesthetized with pentobarbital and a catheter filled with saline was implanted into the urinary bladder, ligated, secured on the back of the neck and closed. Seven days after the bladder catheter implantation, another catheter filled with heparin-containing saline was implanted into the […], and ligated, secured on the back of the neck and closed. The next day, cystometry was performed in the conscious rat under free moving. Saline was instilled into the urinary bladder at a rate of 12 mL/hr. A drug was injected through the […] catheter that was secured on the back of the neck. […] Intravenous injection of compound 1 (0.1 mg/kg) prolonged the micturition interval by about 20% (FIG. 1) and decreased the frequency of involuntary contraction in filling phase by 20% (FIG. 2) in the same model.

## C[C@H](Cc1cc2c(c(C(N)=O)c1)N(CCCO)CC2)NCCOc1ccccc1OCC(F)(F)F [compound 1, (−)-1-(3-hydroxypropyl)-5-((2R)-2-{[2-({2-[(2,2,2-trifluoroethyl)oxy]phenyl}oxy)ethyl]amino}propyl)-2,3-dihydro-1H-indol-7-yl-carboxamide]
Versus value before drug administration (FIG. 1)
  prolongation of the micturition interval: about 20%
Versus value before drug administration (FIG. 2)
  decrease of the frequency of involuntary contraction in filling phase: 20%
